Measurements: US11420977B2, “Late SV40 (LSF) inhibitors” (Trustees of Boston University, priority 2018, dated 2022)

What was measured:
Type in all cases: cell-based
[1] = tested on: SNU-423 cells; assay: MTS cell proliferation assay, SNU-423; settings: Homo sapiens, 120 hrs incubation
Protocol: (§1) Cell lines and culture conditions: Human colon cancer cells Caco-2, HT29 and HCT15, human pancreatic cancer cells BxPC3, CFPAC-1, and CAPAN-2, liver cancer cells SNU423 and kidney cells HEK293, were obtained from American Type Culture Collection (Rockville, USA). HeLa, DLD1, U937, THP-1, and NIH3T3 cells were obtained from ATCC. Huh7 cells were obtained from (Japanese Cancer Resources Bank). HeLa cells, Huh7, DLD1 and NIH-3T3 cells were cultured in DMEM (Dulbecco's modification of Eagle's Medium; Corning) supplemented with 10% Fetal Bovine Serum (FBS; Invitrogen) and 10% Fetal Calf Serum (FCS; Atlanta Biologicals) respectively. U937, BxPC3, HCT15, SNU423 and THP-1 cells were grown in RPMI-1640 (Roswell Park Memorial Institute; Corning) supplemented with 10% Fetal Bovine Serum (FBS; Invitrogen). CFPAC-1 cells were cultured in Iscove's Modified Dulbecco's Medium (ATCC) supplemented with 10% FBS. CAPAN-2 and HT29 cells were cultured in McCoy's 5a medium supplemented with 10% FBS. Caco2 and HEK293 cells were grown in Eagle's Minimum Essential Medium (ATCC) with final 20% FBS concentration. All cells were maintained at 37° C. in 5% CO2 at constant 70% humidity.
(§2) MTS cell proliferation assay: Cells were detached from the plates using trypsin (0.25% for 3 mins, ATCC) and counted using a hemocytometer and were plated at 3000-1500 cells per well, in a 96-well format. The cells were seeded in the inner wells of 96 well plates, and media was added to the outer wells (blank). For NIH-3T3, 1500 cells were seeded in the inner wells of 96-well plates, and after 20 hours cells were treated with compound or DMSO (vehicle control) at appropriate concentrations (DMSO at final concentration of 1%). For other adherent cells 3000 HeLa, BxPC3, CFPAC-1, CAPAN-2, HEK293, HCT15, HT29, CaCo2, DLD1, Huh7 or SNU423 cells were seeded in in each well approximately 20 hrs prior to the treatment. For U937 and THP-1 suspension cells, 2500 cells were added to the wells of a 96-well plate on the day of treatment. After a 72-hour (or 120 hrs for BxPC3, CAPAN-2, SNU423) incubation with compound or vehicle, cell growth was assessed via the Promega CellTiter 96® AQueous One Solution Cell Proliferation Assay, a colorimetric method to determine the number of viable cells. 20 μL of the CellTiter 96® AQueous One Solution Reagent was added directly into cultured wells and incubated for approximately one hour, after which the absorbance at 490 nm was read with a 96-well plate reader (Opys MR Microplate Reader). GI50 values were determined from plots of the percentage of compound-treated cell growth to vehicle cell growth vs. compound concentration (GraphPad Prism; non-linear regression, log inhibitor verse normalized response with variable slope).

[2] = tested on: NIH 3T3 cells; assay: MTS cell proliferation assay, NIH 3T3; settings: Mus musculus, NIH3T3, 72-hour incubation
Protocol: as §1, with “All cells were maintained at 37° C. in 5% CO2 at constant 70% humidity.” left out
(§3) MTS cell proliferation assay: Cells were detached from the plates using trypsin (0.25% for 3 mins, ATCC) and counted using a hemocytometer and were plated at 3000-1500 cells per well, in a 96-well format. […] After a 72-hour (or 120 hrs for BxPC3, CAPAN-2, SNU423) incubation with compound or vehicle, cell growth was assessed via the Promega CellTiter 96® AQueous One Solution Cell Proliferation Assay, a colorimetric method to determine the number of viable cells. 20 μL of the CellTiter 96® AQueous One Solution Reagent was added directly into cultured wells and incubated for approximately one hour, after which the absorbance at 490 nm was read with a 96-well plate reader (Opys MR Microplate Reader). GI50 values were determined from plots of the percentage of compound-treated cell growth to vehicle cell growth vs. compound concentration (GraphPad Prism; non-linear regression, log inhibitor verse normalized response with variable slope).

[3] = tested on: HeLa cells; assay: MTS cell proliferation assay, HeLa; settings: Homo sapiens, 72-hour incubation
Protocol: as §1, with “All cells were maintained at 37° C. in 5% CO2 at constant 70% humidity.” left out
as §3

[4] = tested on: HuH7 cells; assay: MTS cell proliferation assay, HuH7; settings: Homo sapiens, Huh-7, 72-hour incubation
Protocol: as §1, §2

| GI50 [1] | GI50 [3] | GI50 [4] | SMILES | GI50 [2] |
| --- | --- | --- | --- | --- |
| 251 nM | 300 nM | 158 nM | CCOc1cc(N(C)C)ccc1[C@@H]1CC(=O)Nc2cc3c(cc21)OCO3 [(R)-FQI-34] | 5800 nM |
| 147 nM | – | 126 nM | CCOc1cc(N(C)C)ccc1[C@@H]1CC(=O)Nc2cc3c(cc21)OCCO3 [(R)-FQI-37] | – |
| 50 nM | 3800 nM | 56 nM | CCOc1cc(N(C)C)ccc1[C@H]1CC(=O)Nc2cc3c(cc21)OCO3 [(S)-FQI-34] | 590 nM |
